The record followed here is patent US8680272B2, “3-arylethynyl substituted quinazolinone compounds” (Council of Scientific & Industrial Research, priority 2011, dated 2014).

Usually GI50 stands for the concentration that inhibits growth by half.

A short description of experiment [1]: Anticancer activity, SRB assay, non-small cell lung panel. Format: cell-based, human. The following applies: Homo sapiens; nine non-small cell lung cancer cell lines; exposure period of at least 48 h; read-out: GI50 (range over the panel). On the procedure: (§1) Some of biological activity studies were carried out at the National Cancer Institute (NCI), Maryland, USA.
(§2) The compounds were evaluated for anticancer activity against sixty human cancer cells derived from nine cancer types (leukemia cell line, non-small-cell lung cell line, colon cell line, CNS cell line, melanoma cell line, ovarian cell line, prostate cell line, renal cell line and breast cancer cell line) as shown in Table 1. For each compound, dose response curves for each cell line were measured at a minimum of five concentrations at 10 fold dilutions. A protocol of 48 h continuous drug exposure was used and a sulforhodamine B (SRB) protein assay was used to estimate cell viability or growth.
(Sulforhodamine B stains cellular protein and so reports cell mass.)

For experiment [2], the system named is nine non-small cell lung cancer cell lines (A549/ATCC, EKVX, HOP-62, HOP-92, NCI-H226, NCI-H23, NCI-H322M, NCI-H460 and NCI-H522). The description is as above. It counts as cell-based, human. Particulars: Non-small cell lung; for mean graph midpoint values (MG_MID) of log10 TGI (Log10TGI50): log value of concentration of the compound resulting in total inhibition of net cell growth; for mean graph midpoint values (MG_MID) of Log10LC50: log value of the concentration of compounds leading to 50% net cell death; for mean graph midpoint values (MG_MID) of Log10GI50: log values of concentration in mol/L causing 50% inhibition of net cell growth. As to the method:
as §1, §2

Experiment [3] relates to SK-MEL-2. The experiment in a line: Anticancer activity, SRB assay, melanoma cell line SK-MEL-2. It counts as cell-based, human. The following applies: Melanoma SK-MEL-2, 48 h continuous drug exposure, —^b means GI50 values not attained at the concentrations used; for GI50: Homo sapiens, read-out: Growth Inhibition GI50. As to the method:
as §1, §2

The subject of experiment [4] is M14. As to the kind of experiment: Anticancer activity, SRB assay, melanoma cell line M14. The following applies: Homo sapiens, 48 h continuous drug exposure, read-out: Growth Inhibition GI50. It counts as cell-based. On the procedure:
as §1, §2

The subject of experiment [5] is SF-295. The experiment in a line: Anticancer activity, SRB assay, CNS cell line SF-295. It counts as cell-based, human. Particulars: CNS SF-295, 48 h continuous drug exposure, —^b means GI50 values not attained at the concentrations used; for GI50: Homo sapiens, read-out: Growth Inhibition GI50. On the procedure:
as §1, §2

The subject of experiment [6] is ACHN. The experiment in a line: Anticancer activity, SRB assay, renal cell line ACHN. Format: cell-based, human. Particulars: 48 h continuous drug exposure, —^b means GI50 values not attained at the concentrations used; for GI50: Homo sapiens, read-out: Growth Inhibition GI50. On the procedure:
as §1, §2

The subject of experiment [7] is MDA-MB-468. The experiment in a line: Anticancer activity, SRB assay, breast cell line MDA-MB-468. Format: cell-based. The following applies: Homo sapiens; Breast MDA-MB-468; 48 h continuous drug exposure; read-out: Growth Inhibition GI50. As to the method: as §1, §2
Experiment [8] relates to SK-OV-3. The experiment in a line: Anticancer activity, SRB assay, ovarian cell line SK-OV-3. Format: cell-based, human. The following applies: Ovarian SK-OV-3, 48 h continuous drug exposure, —^b means GI50 values not attained at the concentrations used; for GI50: Homo sapiens, read-out: Growth Inhibition GI50. On the procedure:
as §1, §2

Experiment [9] concerns NCI/ADR-RES. As to the kind of experiment: Anticancer activity, SRB assay, ovarian cell line NCI/ADR-RES. The following applies: Ovarian NCl/ADR-RES, 48 h continuous drug exposure, —^b means GI50 values not attained at the concentrations used; for GI50: Homo sapiens, NCI/ADR-RES, read-out: Growth Inhibition GI50. It counts as cell-based, human. As to the method:
as §1, §2

Experiment [10] concerns COLO 205. The experiment in a line: Anticancer activity, SRB assay, colon cell line COLO 205. It counts as cell-based. Particulars: Homo sapiens; Colon COLO 205; 48 h continuous drug exposure; read-out: Growth Inhibition GI50. As to the method:
as §1, §2

The subject of experiment [11] is A549/ATCC. The experiment in a line: Anticancer activity, SRB assay, non-small lung cell line A549/ATCC. Format: cell-based, human. The following applies: 48 h continuous drug exposure, —^b means GI50 values not attained at the concentrations used; for GI50: Homo sapiens, read-out: Growth Inhibition GI50. As to the method:
as §1, §2

Experiment [12] has as its system OVCAR-3. As to the kind of experiment: Anticancer activity, SRB assay, ovarian cell line OVCAR-3. Format: cell-based. The following applies: Homo sapiens; Ovarian OVCAR-3; 48 h continuous drug exposure; read-out: Growth Inhibition GI50. As to the method:
as §1, §2

For experiment [13], the system named is HOP-92. As to the kind of experiment: Anticancer activity, SRB assay, non-small lung cell line HOP-92. It counts as cell-based, human. Particulars: Non-small lung HOP-92, 48 h continuous drug exposure, —^b means GI50 values not attained at the concentrations used; for GI50: Homo sapiens, read-out: Growth Inhibition GI50. On the procedure:
as §1, §2

Experiment [14] has as its system HCC-2998. The experiment in a line: Anticancer activity, SRB assay, colon cell line HCC-2998. It counts as cell-based, human. The following applies: Colon HCC-2998, 48 h continuous drug exposure, —^b means GI50 values not attained at the concentrations used; for GI50: Homo sapiens, read-out: Growth Inhibition GI50. On the procedure:
as §1, §2

The subject of experiment [15] is nine melanoma cancer cell line (LOX IMVI, MALME-3M, M14, MDA-MB-435, SK-MEL-2, SK-MEL-28, SK-MEL-5, UACC-257 and UACC-62). The experiment in a line: Anticancer activity, SRB assay, melanoma panel. It counts as cell-based, human. The following applies: Melanoma; for mean graph midpoint values (MG_MID) of log10 TGI (Log10TGI50): log value of concentration of the compound resulting in total inhibition of net cell growth; for mean graph midpoint values (MG_MID) of Log10LC50: log value of the concentration of compounds leading to 50% net cell death; for mean graph midpoint values (MG_MID) of Log10GI50: log values of concentration in mol/L causing 50% inhibition of net cell growth. On the procedure:
as §1, §2

A short description of experiment [16]: Anticancer activity, SRB assay, melanoma panel. Format: cell-based, human. The following applies: Homo sapiens; nine melanoma cancer cell line; exposure period of at least 48 h; read-out: GI50 (range over the panel). On the procedure: as §1, §2
For experiment [17], the system named is CCRF-CEM. As to the kind of experiment: Anticancer activity, SRB assay, leukemia cell line CCRF-CEM. Format: cell-based, human. The following applies: 48 h continuous drug exposure, —^b means GI50 values not attained at the concentrations used; for GI50: Homo sapiens, read-out: Growth Inhibition GI50. On the procedure: as §1, §2
Experiment [18] concerns KM12. The experiment in a line: Anticancer activity, SRB assay, colon cell line KM12. Format: cell-based. The following applies: Homo sapiens, 48 h continuous drug exposure, read-out: Growth Inhibition GI50. As to the method: as §1, §2
The test system of experiment [19] is RXF 393. As to the kind of experiment: Anticancer activity, SRB assay, renal cell line RXF 393. It counts as cell-based, human. Particulars: Renal RXF 393; 48 h continuous drug exposure; —^b means GI50 values not attained at the concentrations used. As to the method:
as §1, §2

Each structure is given as a SMILES string.

In the case of `Cc1cc(C#Cc2ccccc2)ccc1-n1c(/C=C/c2ccc(O)cc2)nc2ccccc2c1=O` [Compound 4b, (E)-2-(4-Hydroxystyryl)-3-(2-methyl-4-(phenylethynyl)phenyl)quinazolin-4(3H)-one], the GI50 in experiment [1] was 2.22 to 13.1 µM; in experiment [3], 1.93 µM; in experiment [4], 3.26 µM; in experiment [5], 2.85 µM; in [6] it was 2.46 µM; in experiment [7], 3.78 µM. Also, the GI50 was 9.91 µM in [8]; 3.09 µM in [9]; 1.99 µM in experiment [10]; 3.14 µM in experiment [11]; 3.6 µM in experiment [12]; 2.5 µM in [13]. Further, the 50% growth inhibitory concentration (GI50) in experiment [14] is 2.35 µM; in experiment [16], 1.77 to 4.54 µM; in [17] it was 3.26 µM; in [18], 3.24 µM. In addition, the figures for the “mean graph midpoint values (MG_MID) of log10 TGI (Log10TGI50)” value (“mean graph midpoint values … (Log10TGI50)” for short) in experiment [2] and in experiment [15] were −4.32 and −4.79, respectively. The “mean graph midpoint values (MG_MID) of Log10LC50” value is given as −4.04 in experiment [2] and −4.16 in [15]. Besides, the “mean graph midpoint values (MG_MID) of Log10GI50” value is reported as −5.47 mol/L in experiment [2] and −5.54 mol/L in experiment [15].
Regarding `Cc1cc(C#Cc2ccccc2)ccc1-n1c(/C=C/c2cc(O)ccc2O)nc2ccccc2c1=O` [Compound 4c, (E)-2-(2,5-Dihydroxystyryl)-3-(2-methyl-4-(phenylethynyl)phenyl)quinazolin-4(3H)-one], the GI50 was 1.24 to 1.71 µM in [1]; 1.4 µM in experiment [3]; 1.54 µM in experiment [4]; 1.35 µM in [5]; 1.44 µM in [6]; 1.61 µM in experiment [7]. The concentration for 50% growth inhibition (GI50) in experiment [8] turned out to be 1.83 µM; in experiment [9] it was 2.06 µM; in experiment [10] it was 1.48 µM; in [11] it was 1.28 µM; in [12] it was 1.49 µM; in experiment [13], 1.54 µM. For the same compound, the GI50 was 1.36 µM in experiment [14], 1.35 to 1.67 µM in experiment [16], 1.54 µM in experiment [17] and 1.65 µM in [18]. The “mean graph midpoint values … (Log10TGI50)” value is −5.44 in experiment [2] and −5.52 in experiment [15]. The entries for the “mean graph midpoint values (MG_MID) of Log10LC50” value in experiment [2] and in [15] were −4.91 and −5.22, respectively. Moreover, the “mean graph midpoint values (MG_MID) of Log10GI50” value in experiment [2] and in experiment [15] was −5.83 mol/L each time.
`COc1ccc2cc(C#Cc3ccc(-n4c(/C=C/c5cc(OC)c(OC)c(OC)c5)nc5ccccc5c4=O)c(C)c3)ccc2c1` [Compound 6l, (E)-3-(4-((6-Methoxynaphthalen-2-yl)ethynyl)-2-methylphenyl)-2-(3,4,5-trimethoxystyryl)quinazolin-4(3H)-one]: the 50% growth inhibitory concentration (GI50) in [1] is 2.48 to 40.5 µM; in [4] it was 12.7 µM; in experiment [7], 3.8 µM; in [10], 6.96 µM; in experiment [12], 19.3 µM; in experiment [16] it was 1.85 to 42.6 µM. Besides, in [18], the GI50 came out at 4.3 µM. In addition, the “mean graph midpoint values … (Log10TGI50)” value in experiment [2] and in experiment [15] was more than −4.00 in each case. In addition, the “mean graph midpoint values (MG_MID) of Log10LC50” value in experiment [2] and in experiment [15] was more than −4.00 throughout. Also, the results for the “mean graph midpoint values (MG_MID) of Log10GI50” value in experiment [2] and in experiment [15] were −4.32 mol/L and −4.79 mol/L, respectively. Moreover, the “Growth Inhibition GI50” value in experiment [3], in experiment [5], in experiment [6], in experiment [19], in experiment [8] and in experiment [9] was “—^b” throughout. In addition, the “Growth Inhibition GI50” value in experiment [11], in [13], in experiment [14] and in [17] was “—^b” each time.
